pIC50: −log10 of the molar value.
Target: human-cGAS (h-cGAS) (Homo sapiens, UniProt Q8N884)
Test: hcGAS Kinase-Glo Assay
Format: biochemical
Conditions: 40 nM h-cGAS, 100 μM ATP, 100 μM GTP, 25 nM dsDNA, 3 h incubation, read-out: hcGAS potency IC50
Outline: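 IC50 values come from a luminescence-based Kinase-Glo measurement on human cGAS. Conditions follow the Lama et al. 2019 method with minor modifications.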

human-cGAS (h-cGAS), sequence (Q8N884 whole entry): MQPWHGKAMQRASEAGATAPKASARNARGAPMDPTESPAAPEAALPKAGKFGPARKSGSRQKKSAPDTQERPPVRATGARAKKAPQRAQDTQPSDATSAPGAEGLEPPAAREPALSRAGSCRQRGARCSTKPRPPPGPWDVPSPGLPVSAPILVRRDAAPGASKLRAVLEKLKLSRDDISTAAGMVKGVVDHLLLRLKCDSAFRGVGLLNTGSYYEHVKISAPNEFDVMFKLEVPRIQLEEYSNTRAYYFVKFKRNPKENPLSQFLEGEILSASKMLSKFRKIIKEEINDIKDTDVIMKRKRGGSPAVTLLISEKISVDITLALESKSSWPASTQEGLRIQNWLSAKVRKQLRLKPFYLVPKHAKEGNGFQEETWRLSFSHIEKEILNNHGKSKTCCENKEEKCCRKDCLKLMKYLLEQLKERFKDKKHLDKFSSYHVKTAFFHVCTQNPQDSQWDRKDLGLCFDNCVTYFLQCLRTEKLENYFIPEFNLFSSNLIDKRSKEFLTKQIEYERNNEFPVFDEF

Row | SMILES | pIC50
1 | CSc1nnc(NC(=O)c2onc3c(C)cccc23)s1 [Compound 226, 7-methyl-N-[5-(methylsulfanyl)-1,3,4-thiadiazol-2-yl]-2,1-benzoxazole-3-carboxamide] | ≤ 6.00
2 | CSc1nnc(NC(=O)c2onc3ccc(C)cc23)s1 [Compound 227, 5-methyl-N-[5-(methylsulfanyl)-1,3,4-thiadiazol-2-yl]-2,1-benzoxazole-3-carboxamide] | 6.00 to 6.30
3 | CSc1nnc(NC(=O)c2onc3c(Cl)cccc23)s1 [Compound 228, 7-chloro-N-[5-(methylsulfanyl)-1,3,4-thiadiazol-2-yl]-2,1-benzoxazole-3-carboxamide] | 6.00 to 6.30
4 | CSc1nnc(NC(=O)c2onc3ccc(Cl)cc23)s1 [Compound 229, 5-chloro-N-[5-(methylsulfanyl)-1,3,4-thiadiazol-2-yl]-2,1-benzoxazole-3-carboxamide] | 6.00 to 6.30
5 | COc1cccc2c(C(=O)Nc3nnc(SC)s3)onc12 [Compound 230, 7-methoxy-N-[5-(methylsulfanyl)-1,3,4-thiadiazol-2-yl]-2,1-benzoxazole-3-carboxamide] | 6.30 to 7.00
6 | COc1ccc2c(C(=O)Nc3nnc(SC)s3)onc2c1 [Compound 231, 6-methoxy-N-[5-(methylsulfanyl)-1,3,4-thiadiazol-2-yl]-2,1-benzoxazole-3-carboxamide] | 6.30 to 7.00
7 | CSc1nnc(NC(=O)c2oncc2-c2ccccc2)s1 [Compound 232, N-[5-(methylsulfanyl)-1,3,4-thiadiazol-2-yl]-4-phenyl-1,2-oxazole-5-carboxamide] | 6.00 to 6.30
8 | CSc1nnc(NC(=O)c2cc(Cc3ccccc3)no2)s1 [Compound 233, 3-benzyl-N-[5-(methylsulfanyl)-1,3,4-thiadiazol-2-yl]-1,2-oxazole-5-carboxamide] | 6.00 to 6.30
9 | CSc1nnc(NC(=O)c2nc(-c3ccccc3)no2)s1 [Compound 234, N-[5-(methylsulfanyl)-1,3,4-thiadiazol-2-yl]-3-phenyl-1,2,4-oxadiazole-5-carboxamide] | 6.00 to 6.30
10 | CSc1nnc(NC(=O)c2nnc(-c3ccccc3)o2)s1 [Compound 235, N-[5-(methylsulfanyl)-1,3,4-thiadiazol-2-yl]-5-phenyl-1,3,4-oxadiazole-2-carboxamide] | 6.00 to 6.30
11 | CSc1nnc(NC(=O)c2noc(-c3ccccc3)n2)s1 [Compound 236, N-(5-methylsulfanyl-1,3,4-thiadiazol-2-yl)-5-phenyl-1,2,4-oxadiazole-3-carboxamide] | 6.00 to 6.30
12 | CSc1nnc(NC(=O)c2cc(-c3ccccc3F)cc(=O)o2)s1 [Compound 237, 4-(2-fluorophenyl)-N-(5-methylsulfanyl-1,3,4-thiadiazol-2-yl)-6-oxo-pyran-2-carboxamide] | 6.30 to 7.00
13 | CSc1nnc(NC(=O)c2cc(-c3cccc(F)c3)cc(=O)o2)s1 [Compound 238, 4-(3-fluorophenyl)-N-(5-methylsulfanyl-1,3,4-thiadiazol-2-yl)-6-oxo-pyran-2-carboxamide] | 6.30 to 7.00
14 | CSc1nnc(NC(=O)c2cc(-c3ccc(F)cc3)cc(=O)o2)s1 [Compound 239, 4-(4-fluorophenyl)-N-(5-methylsulfanyl-1,3,4-thiadiazol-2-yl)-6-oxo-pyran-2-carboxamide] | 6.30 to 7.00
15 | CSc1nnc(NC(=O)c2cc(-c3cccc(Cl)c3)cc(=O)o2)s1 [Compound 240, 4-(3-chlorophenyl)-N-(5-methylsulfanyl-1,3,4-thiadiazol-2-yl)-6-oxo-pyran-2-carboxamide] | 6.30 to 7.00
16 | COc1cccc(-c2cc(C(=O)Nc3nnc(SC)s3)oc(=O)c2)c1 [Compound 241, 4-(3-methoxyphenyl)-N-(5-methylsulfanyl-1,3,4-thiadiazol-2-yl)-6-oxo-pyran-2-carboxamide] | 6.30 to 7.00
17 | CSc1nnc(NC(=O)c2onc(C)c2C)s1 [Compound 242, 3,4-dimethyl-N-(5-methylsulfanyl-1,3,4-thiadiazol-2-yl)isoxazole-5-carboxamide] | 6.00 to 6.30
18 | CSc1nnc(NC(=O)c2cc(-c3ccc(Cl)cc3)cc(=O)o2)s1 [Compound 243, 4-(4-chlorophenyl)-N-(5-methylsulfanyl-1,3,4-thiadiazol-2-yl)-6-oxo-pyran-2-carboxamide] | 6.00 to 6.30
19 | COc1ccccc1-c1cc(C(=O)Nc2nnc(SC)s2)oc(=O)c1 [Compound 244, 4-(2-methoxyphenyl)-N-(5-methylsulfanyl-1,3,4-thiadiazol-2-yl)-6-oxo-pyran-2-carboxamide] | 6.30 to 7.00
20 | CSc1nnc(NC(=O)c2cc(-c3ccc4ccccc4c3)cc(=O)o2)s1 [Compound 245, N-(5-methylsulfanyl-1,3,4-thiadiazol-2-yl)-4-(2-naphthyl)-6-oxo-pyran-2-carboxamide] | 6.30 to 7.00
21 | CSc1nnc(NC(=O)c2cc(-c3cccc4cccnc34)cc(=O)o2)s1 [Compound 246, N-(5-methylsulfanyl-1,3,4-thiadiazol-2-yl)-6-oxo-4-(8-quinolyl)pyran-2-carboxamide] | 6.30 to 7.00
22 | CSc1nnc(NC(=O)c2cc(-c3ccnc4ccccc34)cc(=O)o2)s1 [Compound 247, N-(5-methylsulfanyl-1,3,4-thiadiazol-2-yl)-6-oxo-4-(4-quinolyl)pyran-2-carboxamide] | 6.00 to 6.30

Row | SMILES | pIC50
23 | CSc1nnc(NC(=O)c2cc(-c3ccccc3C)cc(=O)o2)s1 [Compound 248] | 6.30 to 7.00
24 | CSc1nnc(NC(=O)c2cc(-c3cccc(C)c3)cc(=O)o2)s1 [Compound 249, N-(5-methylsulfanyl-1,3,4-thiadiazol-2-yl)-4-(m-tolyl)-6-oxo-pyran-2-carboxamide] | 6.30 to 7.00
25 | CSc1nnc(NC(=O)c2cc(-c3ccc(C)cc3)cc(=O)o2)s1 [Compound 250, N-(5-methylsulfanyl-1,3,4-thiadiazol-2-yl)-6-oxo-4-(p-tolyl)pyran-2-carboxamide] | 6.30 to 7.00
26 | CSc1nnc(NC(=O)c2cc(-c3ccccc3Cl)cc(=O)o2)s1 [Compound 251, 4-(2-chlorophenyl)-N-(5-methylsulfanyl-1,3,4-thiadiazol-2-yl)-6-oxo-pyran-2-carboxamide] | 6.30 to 7.00
27 | COc1ccc(-c2cc(C(=O)Nc3nnc(SC)s3)oc(=O)c2)cc1 [Compound 252, 4-(4-methoxyphenyl)-N-(5-methylsulfanyl-1,3,4-thiadiazol-2-yl)-6-oxo-pyran-2-carboxamide] | 6.30 to 7.00
28 | CSc1nnc(NC(=O)c2cc(-c3cccc4ccccc34)cc(=O)o2)s1 [Compound 253, N-(5-methylsulfanyl-1,3,4-thiadiazol-2-yl)-4-(1-naphthyl)-6-oxo-pyran-2-carboxamide] | 6.30 to 7.00
29 | CSc1nnc(NC(=O)c2cc(-c3ccc4ccccc4n3)cc(=O)o2)s1 [Compound 254, N-(5-methylsulfanyl-1,3,4-thiadiazol-2-yl)-6-oxo-4-(2-quinolyl)pyran-2-carboxamide] | 6.30 to 7.00
30 | CSc1nnc(NC(=O)c2cc(-c3cnc4ccccc4c3)cc(=O)o2)s1 [Compound 255, N-(5-methylsulfanyl-1,3,4-thiadiazol-2-yl)-6-oxo-4-(3-quinolyl)pyran-2-carboxamide] | 6.00 to 6.30
31 | CSc1nnc(NC(=O)c2cc(-c3cncc4ccccc34)cc(=O)o2)s1 [Compound 256, 4-(4-isoquinolyl)-N-(5-methylsulfanyl-1,3,4-thiadiazol-2-yl)-6-oxo-pyran-2-carboxamide] | 6.00 to 6.30
32 | CSc1nnc(NC(=O)c2nnc(Nc3ccccc3)o2)s1 [Compound 257, 5-anilino-N-(5-methylsulfanyl-1,3,4-thiadiazol-2-yl)-1,3,4-oxadiazole-2-carboxamide] | 6.00 to 6.30
33 | CSc1nnc(NC(=O)c2nnc(Cc3ccccc3)o2)s1 [Compound 259, 5-benzyl-N-(5-methylsulfanyl-1,3,4-thiadiazol-2-yl)-1,3,4-oxadiazole-2-carboxamide] | 6.00 to 6.30
34 | CSc1nnc(NC(=O)c2nnc3ccccn23)s1 [Compound 260] | ≤ 6.00
35 | CSc1nnc(NC(=O)c2nc(Cc3ccccc3)no2)s1 [Compound 261, 3-benzyl-N-(5-methylsulfanyl-1,3,4-thiadiazol-2-yl)-1,2,4-oxadiazole-5-carboxamide] | 6.00 to 6.30
36 | CSc1nnc(NC(=O)c2noc(C3CCCCC3)n2)s1 [Compound 263, 5-cyclohexyl-N-(5-(methylthio)-1,3,4-thiadiazol-2-yl)-1,2,4-oxadiazole-3-carboxamide] | ≤ 6.00
37 | CSc1nnc(NC(=O)c2cc(-c3ccc4ccncc4c3)cc(=O)o2)s1 [Compound 264, 4-(isoquinolin-7-yl)-N-(5-(methylthio)-1,3,4-thiadiazol-2-yl)-2-oxo-2H-pyran-6-carboxamide] | 6.30 to 7.00
38 | CSc1nnc(NC(=O)c2nc(Nc3ccccc3)no2)s1 [Compound 265, N-(5-(methylthio)-1,3,4-thiadiazol-2-yl)-3-(phenylamino)-1,2,4-oxadiazole-5-carboxamide] | 6.00 to 6.30
39 | CSc1nnc(NC(=O)c2ccnc(-c3ccccc3)c2)s1 [Compound 266, N-(5-(methylthio)-1,3,4-thiadiazol-2-yl)-2-phenylisonicotinamide] | ≤ 6.00
40 | CSc1nnc(NC(=O)c2cc(-c3cccc4c(C)ccnc34)cc(=O)o2)s1 [Compound 267, 4-(4-methylquinolin-8-yl)-N-(5-(methylthio)-1,3,4-thiadiazol-2-yl)-2-oxo-2H-pyran-6-carboxamide] | 6.30 to 7.00
41 | CSc1nnc(NC(=O)c2cc(Nc3ccccc3)cc(=O)o2)s1 [Compound 268, N-(5-(methylthio)-1,3,4-thiadiazol-2-yl)-2-oxo-4-(phenylamino)-2H-pyran-6-carboxamide] | 6.30 to 7.00
42 | CSc1nnc(NC(=O)c2cc(-c3cccc4c3cnn4C)cc(=O)o2)s1 [Compound 269, 4-(1-methyl-1H-indazol-4-yl)-N-(5-(methylthio)-1,3,4-thiadiazol-2-yl)-2-oxo-2H-pyran-6-carboxamide] | 6.30 to 7.00
43 | CSc1nnc(NC(=O)c2cc(-c3ccc4cccnc4c3)cc(=O)o2)s1 [Compound 270, N-(5-(methylthio)-1,3,4-thiadiazol-2-yl)-2-oxo-4-(quinolin-7-yl)-2H-pyran-6-carboxamide] | 6.30 to 7.00

Reference: patent US20250002487A1, “HETEROCYCLIC COMPOUNDS AND USES THEREOF” (Ventus Therapeutics U.S., Inc., priority 2021, published 2025)
